Test [1] concerns the target T1, Disintegrin and metalloproteinase domain-containing protein 17 (Homo sapiens, UniProt P78536). Kind of test: Inhibition of TNF(tumor necrosis factor) in human blood. It is filed as functional.
Test [2] addresses T1, Disintegrin and metalloproteinase domain-containing protein 17. Briefly: Inhibitory activity against Tumor necrosis factor alpha-converting enzyme (TACE) in blood. Format: tissue-based.

pIC50: −log10 of the molar value.

T1 sequence (P78536 whole entry, the tested form may be a part): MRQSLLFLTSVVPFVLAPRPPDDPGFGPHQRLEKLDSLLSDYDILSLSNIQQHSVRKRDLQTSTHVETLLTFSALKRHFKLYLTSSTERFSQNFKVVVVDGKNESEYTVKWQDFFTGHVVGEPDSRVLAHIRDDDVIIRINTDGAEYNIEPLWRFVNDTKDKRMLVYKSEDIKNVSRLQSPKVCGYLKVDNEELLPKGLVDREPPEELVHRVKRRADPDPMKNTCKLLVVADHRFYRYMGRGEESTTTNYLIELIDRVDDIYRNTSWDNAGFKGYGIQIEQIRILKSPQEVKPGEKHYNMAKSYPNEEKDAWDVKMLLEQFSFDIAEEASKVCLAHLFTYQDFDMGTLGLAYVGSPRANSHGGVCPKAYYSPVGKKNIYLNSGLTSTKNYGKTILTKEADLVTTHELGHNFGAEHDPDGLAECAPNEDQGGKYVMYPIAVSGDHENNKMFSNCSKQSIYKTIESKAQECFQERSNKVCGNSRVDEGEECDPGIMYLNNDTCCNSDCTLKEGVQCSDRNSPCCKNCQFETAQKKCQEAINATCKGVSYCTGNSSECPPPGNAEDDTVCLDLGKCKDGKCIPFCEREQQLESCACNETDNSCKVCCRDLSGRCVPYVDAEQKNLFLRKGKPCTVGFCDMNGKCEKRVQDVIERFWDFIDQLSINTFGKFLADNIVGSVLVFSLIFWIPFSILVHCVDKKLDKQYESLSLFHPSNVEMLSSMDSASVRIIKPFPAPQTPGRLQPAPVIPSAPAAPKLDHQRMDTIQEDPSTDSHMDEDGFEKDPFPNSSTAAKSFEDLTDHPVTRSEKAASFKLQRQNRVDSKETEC

In general, pIC50 refers to the IC50 on a negative log10 scale, so that one unit is a factor of ten. For the compound `CNC(=O)[C@@H](NC(=O)[C@H](CC(C)C)[C@H](NS(=O)(=O)/C=C/c1ccccc1)C(=O)NO)C(C)(C)C`, the pIC50 in test [1] was 6.11; in test [2] it was 9.27.
As for `CNC(=O)[C@@H](NC(=O)[C@H](CC(C)C)[C@H](Sc1cc(Cl)cc(Cl)c1)C(=O)NO)C(C)(C)C`, the pIC50 is 5.31 in test [1] and 9.38 in test [2].
The corresponding values for `CNC(=O)[C@@H](NC(=O)[C@H](CC(C)C)[C@H](NS(=O)(=O)c1ccc2c(c1)CCC(=O)N2C)C(=O)NO)C(C)(C)C` are 5.52 and 8.54.
On to `CNC(=O)[C@@H](NC(=O)[C@H](CC(C)C)[C@H](NC(=O)c1ccc2ncccc2c1)C(=O)NO)C(C)(C)C`, for which the pIC50 in test [2] was 8.02.
Turning to `CNC(=O)[C@@H](NC(=O)[C@H](CC(C)C)[C@H](Sc1ccc(S(C)(=O)=O)cc1)C(=O)NO)C(C)(C)C`, the values for the negative logarithm of the IC50 (pIC50) in test [1] and in test [2] were 5.68 and 8.90, respectively.
Regarding `CNC(=O)[C@@H](NC(=O)[C@H](CC(C)C)[C@H](OCc1cccc2nccnc12)C(=O)NO)C(C)(C)C`, the negative-log IC50 (pIC50) in test [1] is 5.12; in test [2] it was 8.96.
Turning to `CNC(=O)[C@@H](NC(=O)[C@H](CC(C)C)[C@H](OC)C(=O)NO)C(C)(C)C`, the negative logarithm of the IC50 (pIC50) in test [1] was 5.30; in test [2], 8.82.
`CNC(=O)[C@@H](NC(=O)[C@H](CC(C)C)[C@H](SC)C(=O)NO)C(C)(C)C`: the pIC50 is 5.64 in test [1] and 8.80 in test [2].
On to `CNC(=O)[C@H](Cc1ccccc1)NC(=O)[C@H](CC(C)C)[C@H](CSc1ccccc1)C(=O)NO`, for which the pIC50 in test [1] was 5.28; in test [2], 8.74.
`CNC(=O)[C@@H](NC(=O)[C@H](CC(C)C)[C@@H](Sc1ccccc1)C(=O)NO)C(C)(C)C` had a pIC50 in test [2] of 9.00.
`CNC(=O)[C@@H](NC(=O)[C@H](CC(C)C)[C@H](NS(=O)(=O)c1cccc2c(=O)[nH]cnc12)C(=O)NO)C(C)(C)C`: the pIC50 is 5.31 in test [1] and 8.47 in test [2].
Consider `CNC(=O)[C@@H](NC(=O)[C@H](CC(C)C)[C@H](OCCc1ccc2sc(C)nc2c1)C(=O)NO)C(C)(C)C`, for which the negative logarithm of the IC50 (pIC50) in test [1] is 5.46; in test [2] it was 9.68.
Consider `CNC(=O)[C@@H](NC(=O)[C@H](CC(C)C)[C@H](OCc1ccc2oc(=O)ccc2c1)C(=O)NO)C(C)(C)C`, for which the negative logarithm of the IC50 (pIC50) in test [1] was 5.44; in test [2] it was 9.10.
Take `CNC(=O)[C@@H](NC(=O)C(CC(C)C)C(NS(=O)(=O)c1ccc(NC(C)=O)cc1)C(=O)NO)C(C)(C)C` (single isomer, unassigned): the negative logarithm of the IC50 (pIC50) in test [1] is 5.92; in test [2], 8.89.
With `CNC(=O)[C@@H](NC(=O)C(CC(C)C)C(NS(=O)(=O)c1ccc(Br)cc1)C(=O)NO)C(C)(C)C` (single isomer, unassigned), the negative logarithm of the IC50 (pIC50) is 5.36 in test [1] and 8.85 in test [2].
On to `CNC(=O)[C@@H](NC(=O)[C@H](CC(C)C)[C@H](Sc1ccc(OC)c(OC)c1)C(=O)NO)C(C)(C)C`, for which the pIC50 in test [2] was 8.92.
For `CNC(=O)[C@@H](NC(=O)C(CC(C)C)C(OCc1cc2c(=O)[nH]c(C)nc2cc1Br)C(=O)NO)C(C)(C)C` (single isomer, unassigned), the pIC50 in test [1] is 5.37; in test [2] it was 9.48.
Consider `CNC(=O)[C@@H](NC(=O)C(CC(C)C)C(C(=O)NO)N(Cc1ccccc1)S(=O)(=O)c1cccc2cccnc12)C(C)(C)C` (single isomer, unassigned), for which the pIC50 in test [2] is 7.07.
With `CNC(=O)[C@@H](NC(=O)[C@H](CC(C)C)[C@H](NS(=O)(=O)c1cccs1)C(=O)NO)C(C)(C)C`, the negative logarithm of the IC50 (pIC50) in test [1] was 5.55; in test [2], 8.82.
Turning to `CNC(=O)[C@@H](NC(=O)[C@H](CC(C)C)[C@H](NCCCSC)C(=O)NO)C(C)(C)C`, the figures for the pIC50 in test [1] and in test [2] were 5.34 and 8.89, respectively.
`CNC(=O)[C@@H](NC(=O)C(CC(C)C)C(NCc1ccccc1)C(=O)NO)C(C)(C)C` (single isomer, unassigned): the figures for the pIC50 in test [1] and in test [2] were 5.21 and 8.55, respectively.
Take `CNC(=O)[C@@H](NC(=O)C(CC(C)C)C(NS(=O)(=O)c1cnc[nH]1)C(=O)NO)C(C)(C)C` (single isomer, unassigned): the pIC50 in test [2] was 8.05.
`CNC(=O)[C@@H](NC(=O)[C@H](CC(C)C)[C@H](NCc1ccc2ccccc2n1)C(=O)NO)C(C)(C)C`: the pIC50 in test [1] was 5.24; in test [2], 9.00.
For `CNC(=O)[C@@H](NC(=O)[C@H](CC(C)C)[C@H](Sc1ccc2c(c1)CCC(=O)N2C)C(=O)NO)C(C)(C)C`, in that order: 5.18 and 8.85.
The compound `CNC(=O)[C@@H](NC(=O)C(CC(C)C)C(NC(=O)c1ccccc1)C(=O)NO)C(C)(C)C` (single isomer, unassigned) showed a pIC50 in test [2] of 8.05.
For `CNC(=O)[C@@H](NC(=O)[C@H](CC(C)C)[C@H](OCc1cccc2cccnc12)C(=O)NO)C(C)(C)C`, the pIC50 in test [1] was 5.09; in test [2] it was 9.40.
As to `CNC(=O)[C@@H](NC(=O)[C@H](CC(C)C)[C@H](OCc1ccc2ccccc2c1)C(=O)NO)C(C)(C)C`, the pIC50 in test [1] is 5.14; in test [2] it was 9.22.
For `CCCN([C@H](C(=O)NO)[C@@H](CC(C)C)C(=O)N[C@H](C(=O)NC)C(C)(C)C)S(=O)(=O)c1cccc2cccnc12`, in test [2], the negative logarithm of the IC50 (pIC50) is 8.00.
Take `CNC(=O)[C@@H](NC(=O)[C@H](CC(C)C)[C@@H](C(=O)NO)N1CCCC1)C(C)(C)C`: the figures for the negative logarithm of the IC50 (pIC50) in test [1] and in test [2] were 5.21 and 8.55, respectively.
As for `CNC(=O)[C@@H](NC(=O)[C@H](CC(C)C)[C@H](NS(=O)(=O)c1cccc2ccccc12)C(=O)NO)C(C)(C)C`, the negative-log IC50 (pIC50) in test [1] is 5.51; in test [2], 8.92.
For `CNC(=O)[C@@H](NC(=O)[C@H](CC(C)C)[C@H](Sc1ccccc1)C(=O)NO)C(C)(C)C`, the negative-log IC50 (pIC50) in test [2] was 6.73.
On the same count and under the same terms, to `CNC(=O)[C@@H](NC(=O)C(CC(C)C)C(NC(C)=O)C(=O)NO)C(C)(C)C` (single isomer, unassigned) belongs 7.89.
With `CNC(=O)[C@@H](NC(=O)[C@H](CC(C)C)[C@H](NS(C)(=O)=O)C(=O)NO)C(C)(C)C`, the results for the pIC50 in test [1] and in test [2] were 5.80 and 8.66, respectively.
In test [2], `CNC(=O)[C@@H](NC(=O)[C@H](CC(C)C)[C@H](NS(=O)(=O)c1c(C(C)C)cc(C(C)C)cc1C(C)C)C(=O)NO)C(C)(C)C` showed a negative-log IC50 (pIC50) of 7.89.
For `CNC(=O)[C@@H](NC(=O)[C@H](CC(C)C)[C@H](OCc1cc2ccccc2n(C)c1=O)C(=O)NO)C(C)(C)C`, the figures for the negative logarithm of the IC50 (pIC50) in test [1] and in test [2] were 5.63 and 9.36, respectively.
On to `CCS[C@H](C(=O)NO)[C@@H](CC(C)C)C(=O)N[C@H](C(=O)NC)C(C)(C)C`, for which the pIC50 was 5.25 in test [1] and 8.82 in test [2].
The corresponding values for `CNC(=O)[C@@H](NC(=O)[C@H](CC(C)C)[C@H](NS(=O)(=O)CCc1ccncc1)C(=O)NO)C(C)(C)C` are 6.15 and 8.89.
As for `CNC(=O)[C@@H](NC(=O)C(CC(C)C)C(NS(=O)(=O)c1ccccc1C#N)C(=O)NO)C(C)(C)C` (single isomer, unassigned), the pIC50 in test [2] was 7.77.
Consider `CNC(=O)[C@@H](NC(=O)[C@H](CC(C)C)[C@H](NS(=O)(=O)c1cccnc1)C(=O)NO)C(C)(C)C`, for which the pIC50 in test [1] was 5.42; in test [2] it was 8.68.
As to `CNC(=O)[C@@H](NC(=O)[C@H](CC(C)C)[C@H](OCc1cccc2ccccc12)C(=O)NO)C(C)(C)C`, the values for the pIC50 in test [1] and in test [2] were 5.12 and 9.48, respectively.
For the compound `CNC(=O)[C@@H](NC(=O)C(CC(C)C)C(NS(=O)(=O)c1ccccc1)C(=O)NO)C(C)(C)C` (single isomer, unassigned), the pIC50 in test [1] was 5.89; in test [2], 8.82.
For the compound `CNC(=O)[C@@H](NC(=O)[C@H](CC(C)C)[C@H](NC(=O)c1ccc2ccccc2c1)C(=O)NO)C(C)(C)C`, the values for the negative-log IC50 (pIC50) in test [1] and in test [2] were less than 4.70 and 8.48, respectively.
On to `CNC(=O)[C@@H](NC(=O)[C@H](CC(C)C)[C@H](NCc1ccc2ccccc2c1)C(=O)NO)C(C)(C)C`, for which the values for the pIC50 in test [1] and in test [2] were 5.17 and 9.24, respectively.
In the case of `CC1(C)SCCN(S(=O)(=O)c2ccc(Oc3ccncc3)cc2)[C@H]1C(=O)NO` [PRINOMASTAT], the results for the negative logarithm of the IC50 (pIC50) in test [1] and in test [2] were 4.78 and 8.26, respectively.
For `CNC(=O)[C@@H](NC(=O)[C@H](CC(C)C)[C@H](Sc1ccc(C#N)cc1)C(=O)NO)C(C)(C)C`, in that order: 5.48 and 9.20.
In the case of `CNC(=O)[C@@H](NC(=O)[C@H](CC(C)C)[C@H](NS(=O)(=O)c1ccc2c(c1)CC(=O)N2)C(=O)NO)C(C)(C)C`, the pIC50 in test [1] was 5.82; in test [2] it was 8.55.
On to `CNC(=O)[C@@H](NC(=O)[C@H](CC(C)C)[C@H](Sc1cccc(C(C)(C)C#N)c1)C(=O)NO)C(C)(C)C`, for which the negative logarithm of the IC50 (pIC50) in test [1] was 5.55; in test [2] it was 8.80.
With `CNC(=O)[C@@H](NC(=O)C(CC(C)C)C(NS(=O)(=O)c1ccc(F)cc1Cl)C(=O)NO)C(C)(C)C` (single isomer, unassigned), in test [2], the negative logarithm of the IC50 (pIC50) is 8.01.
As for `CNC(=O)[C@@H](NC(=O)C(CC(C)C)C(NS(=O)(=O)c1cc(Cl)cc(Cl)c1)C(=O)NO)C(C)(C)C` (single isomer, unassigned), the pIC50 in test [1] is 4.95; in test [2], 9.00.
Consider `CNC(=O)[C@@H](NC(=O)[C@H](CC(C)C)[C@H](Sc1ccc(F)cc1Cl)C(=O)NO)C(C)(C)C`, for which the negative-log IC50 (pIC50) in test [1] is 4.96; in test [2] it was 8.96.
`CNC(=O)[C@@H](NC(=O)[C@H](CC(C)C)[C@H](NC(=O)c1cccnc1)C(=O)NO)C(C)(C)C` gave a negative logarithm of the IC50 (pIC50) in test [2] of 7.66.
Turning to `CNC(=O)[C@@H](NC(=O)[C@H](CC(C)C)[C@H](NS(=O)(=O)c1ccc2ccccc2c1)C(=O)NO)C(C)(C)C`, the negative logarithm of the IC50 (pIC50) in test [1] is 5.92; in test [2] it was 9.18.
On to `CNC(=O)[C@@H](NC(=O)[C@H](CC(C)C)[C@H](NS(=O)(=O)c1ccc(C(=O)O)cc1)C(=O)NO)C(C)(C)C`, for which the negative logarithm of the IC50 (pIC50) was 5.36 in test [1] and 8.49 in test [2].
`CNC(=O)[C@@H](NC(=O)[C@H](CC(C)C)[C@H](OCc1ccc2nc(C)nc(O)c2c1)C(=O)NO)C(C)(C)C`: the pIC50 in test [1] was 5.62; in test [2], 9.37.
